# Literature values, collected in patent US20220160668A1, “FORMULATIONS AND METHODS FOR TREATING CONDITIONS OF THE EYE” (Sight Sciences, Inc., priority 2020, published 2022).
# Conditions: antibiotic level of azithromycin (1%)
smiles,measurement,value
CC[C@H]1OC(=O)[C@H](C)[C@@H](O[C@H]2C[C@@](C)(OC)[C@@H](O)[C@H](C)O2)[C@H](C)[C@@H](O[C@@H]2O[C@H](C)C[C@H](N(C)C)[C@H]2O)[C@](C)(O)C[C@@H](C)CN(C)[C@H](C)[C@@H](O)[C@]1(C)O [azithromycin],effect on phase transition temperature of meibum lipids and lipid ordering,can improve the phase transition temperature of meibum lipids and lipid ordering
